Experiments:
Human hepatocytes = experiment: Fatty acid oxidation promoting ability (3H2O in medium), hepatocytes; type: cell-based; settings: 50 μM, vs non-treated group, FIG. 11
Protocol: (§1) Human adipocytes, hepatocytes and myocytes were treated with 50 μM syringaresinol in substantially the same manner as in Test Example 3. The cells were washed with PBS and cultured for a day in a medium for fatty acid oxidation analysis. The medium was recovered and the amount of ^3H2O was measured.

PGC-1β = PGC-1β mRNA expression promoting effect (qRT-PCR); type: cell-based, human; settings: 50 μM, vs DMSO control, FIG. 13
Protocol: Human adipocytes, hepatocytes and myocytes were treated with 50 μM syringaresinol in substantially the same manner as in Test Example 3 and washed with PBS. Then, RNA and cDNA were sequentially extracted therefrom. The mRNA expression of the energy metabolism-related genes PGC-1α and PGC-1β was analyzed by qRT-PCR. A result of comparing the expression of PGC-1α and PGC-1β with a control group treated only with DMSO is shown in FIG. 12 and FIG. 13, respectively.

human PBMCs = experiment: Reactive oxygen species production inhibiting effect in LPS-treated human PBMCs (H2-DCFDA); type: cell-based; settings: human PBMCs pretreated with 20, 50 or 100 μM, then 10 ng/mL LPS; compared to cells treated only with LPS; FIG. 18
Protocol: After pretreating human PBMCs with 20, 50 or 100 μM syringaresinol in substantially the same manner as in Test Example 10, followed by washing with PBS, inflammatory response was induced by treating with 10 ng/mL lipopolysaccharide (LPS). After treating the cells with H2-DCFDA (Invitrogen), which is a fluorescent substance capable of detecting reactive oxygen species, the amount of fluorescent substance was measured using a multiplate reader (Infinite M200; Tecan, Mannedorf, Switzerland).

[1] = tested on: aged retinal cells (ARPE-19); experiment: Mitochondrial function recovering effect in aged retinal cells: reactive oxygen species production (H2DCFDA, flow cytometer); type: cell-based, human; settings: compared to cells treated only with DMSO, FIG. 16
Protocol: The aging of retinal cells was induced while treating with 50 or 100 μM syringaresinol or with DMSO as a negative control, in substantially the same manner as in Test Example 7. For evaluation of mitochondrial function recovering effect, the level of energy (ATP) and reactive oxygen species production in retinal cells was investigated. The energy production was determined by recovering the aged cells after washing with PBS and then with hot water and measuring luminescence using the ATP determination kit (Molecular Probes, Eugene, Oreg., USA) and the Tecan system (Infinite M200, Tecan, Austria). The reactive oxygen species production was measured using a flow cytometer (BD Biosciences, San Jose, Calif., USA) after washing the aged cells with PBS and staining them with the reactive oxygen species detection reagent (H2DCFDA, Invitrogen, Carlsbad, Calif., USA).

[2] = tested on: aged retinal cells (ARPE-19); experiment: Mitochondrial biosynthesis promoting effect in aged retinal cells (mitochondrial DNA relative to nuclear DNA, real-time PCR); type: cell-based, human; settings: vs DMSO, FIG. 15
Protocol: The aging of retinal cells was induced while treating with 50 or 100 μM syringaresinol or with DMSO as a negative control, in substantially the same manner as in Test Example 7. The cells treated with each sample were washed 2 times with cold PBS and genomic DNA (gDNA) was extracted therefrom using the FastPure DNA kit (Tokyo, Japan). For evaluation of mitochondrial biosynthesis, the quantity of the mitochondrial DNA marker cytochrome oxidase subunit II and the nuclear DNA marker cyclophilin A was quantified through real-time PCR using the extracted gDNA and the number of mitochondria was measured by calculating the quantity of mitochondrial DNA relative to the nuclear DNA. PCR reaction and analysis were carried out using the Rotor-Gene 3000 system (Corbett Research, Sydney, Australia).

SIRT1 = SIRT1 expression promoting effect in adipocytes, hepatocytes and myocytes (qRT-PCR); type: cell-based, human; settings: 24 hours, FIG. 4
Protocol: The SIRT1 gene expression promoting effect of syringaresinol in human adipocytes, hepatocytes and myocytes was evaluated as follows.
Human adipocytes, hepatocytes and myocytes were purchased from Zen-Bio (Research Triangle Park, N.C., USA) and cultured in a 5% CO2 incubator using respectively an adipocyte medium (OM-AM, Zen-Bio), a hepatocyte medium (HM-2, Zen-Bio) and a myocyte medium (SKM-D, SKM-M, Zen-Bio). The cells were treated with syringaresinol dissolved in DMSO to a concentration of 20, 50 or 100 μM for 24 hours. A negative control group was treated with DMSO corresponding to 1/1000 of the volume of the culture medium.
The cells treated with each sample were washed 2 times with cold PBS and RNA was extracted therefrom using the TRIzol reagent (Invitrogen). Then, cDNA was synthesized from the extracted RNA ([…]) using a reverse transcription system (Fermentas, Glen Burnie, Md., USA). The expression pattern of the SIRT1 and GAPDH genes was monitored by qRT-PCR using the synthesized cDNA and predesigned primers and probes. PCR reaction and analysis were carried out using the Rotor-Gene 3000 system (Corbett Research, Sydney, Australia).

Human myocytes = experiment: Fatty acid oxidation promoting ability (3H2O in medium), myocytes; type: cell-based; settings: 50 μM, vs non-treated group, FIG. 11
Protocol: as §1

ADD1/SREBP1c, ACC, FAS = experiment: Expression of fatty acid synthesis-related genes (qRT-PCR); type: cell-based, human; settings: 50 μM, vs DMSO control
Protocol: Human adipocytes, hepatocytes and myocytes were treated with 50 μM syringaresinol and washed with PBS in substantially the same manner as in Test Example 3. RNA was extracted from the cells and cDNA was synthesized therefrom. The change in expression pattern of fatty acid synthesis-related genes such as ADD1/SREBP1c, ACC, FAS, etc. and fatty acid oxidation-related genes such as ACO, CPT1, mCAD, etc. was measured by qRT-PCR.

gingival fibroblasts = experiment: Cellular activity promoting effect in gingival fibroblasts (MTT assay); type: cell-based, human; settings: cigarette smoke condensate 100 μg/mL, syringaresinol 50 or 100 μg/mL, 2 days, FIG. 3
Protocol: Gingival fibroblasts subcultured for 5-6 times in substantially the same manner as in Test Example 1 were seeded onto a 24-well plate, with 1×10^4 cells per well. After culturing for 1 day, cigarette smoke condensate was added with a concentration of 100 μg/mL in substantially the same manner as in Test Example 1 and the syringaresinol obtained in Example was added after dissolving in DMSO to a concentration of 50 or 100 μg/mL. A control group was treated with DMSO corresponding to 1/1000 of the volume of the culture medium. Also, a group which was treated with neither the cigarette smoke condensate nor the test substance was prepared. After culturing for 2 days and adding 300 μL of 3-(4,5-dimethylthiazol-2-yl)-2,5-diphenyltetrazolium bromide (MTT; Sigma, USA) dissolved in physiological saline per each well, the cells were cultured for 4 hours. After removing the culture medium and dissolving formazan crystals by adding 200 μL of dimethyl sulfoxide (DMSO; Junsei, Japan), absorbance was measured at 540 nm using an ELISA reader (Spectra MAX 250, Molecular Devices Co., USA). Each experiment was repeated 3 times.

With `COc1cc(C2OCC3C(c4cc(OC)c(O)c(OC)c4)OCC23)cc(OC)c1O` (centres unmarked) [syringaresinol] the fatty acid oxidation (Human hepatocytes) was “increased fatty acid oxidation”, the “expression of PGC-1β” value (PGC-1β; human adipocytes) was “increased the expression” and the “expression of PGC-1β” value (PGC-1β; human hepatocytes) was “increased the expression”. For the same compound, the “expression of PGC-1β” value (PGC-1β; human myocytes) was “increased the expression”, the “decreased reactive oxygen species production” value (human PBMCs) was “about 60%” and the “decreased reactive oxygen species production” value ([1]; 50 μM) was “about 7%”. The “decreased reactive oxygen species production” value ([1]; 100 μM) was ~11%, the “increase in mitochondrial biosynthesis (mitochondrial DNA relative to nuclear DNA)” value ([2]; 50 μM) was “about 40%” and the “increase in mitochondrial biosynthesis (mitochondrial DNA relative to nuclear DNA)” value ([2]; 100 μM) was ~60%. The SIRT1 expression (SIRT1; human adipocytes, 20, 50 or 100 μM) was “increased SIRT1 expression”, the SIRT1 expression (SIRT1; human hepatocytes, 20, 50 or 100 μM) was “increased SIRT1 expression” and the SIRT1 expression (SIRT1; human myocytes, 20, 50 or 100 μM) was “increased SIRT1 expression”. For the same compound, the fatty acid oxidation (Human myocytes) was “increased fatty acid oxidation”, the “expression of fatty acid synthesis-inducing genes” value (ADD1/SREBP1c, ACC, FAS; human adipocytes, FIG. 5) was “suppressed the expression of fatty acid synthesis-inducing genes” and the “expression of fatty acid synthesis-inducing genes” value (ADD1/SREBP1c, ACC, FAS; human hepatocytes, FIG. 6) was “suppressed the expression of fatty acid synthesis-inducing genes”. For the same compound, the “expression of fatty acid synthesis-inducing genes” value (ADD1/SREBP1c, ACC, FAS; human myocytes, FIG. 7) was “suppressed the expression of fatty acid synthesis-inducing genes” and the “cellular activity (MTT, absorbance at 540 nm)” value (gingival fibroblasts) was “recovered cellular activity, which had been decreased due to smoking, to a level substantially comparable to the normal level”.
